Assay results: ChEMBL document CHEMBL1141103, “5-Cyanopyrimidine derivatives as a novel class of potent, selective, and orally active inhibitors of p38alpha MAP kinase” (J Med Chem, 2005)

Columns and labels:
PBMC = test: Concentration required to inhibit LPS-induced TNFalpha production in human peripheral blood mononuclear cells; n=3; format: functional, cell-based
PHA-Ly = test: In vitro cytotoxic effect of compound (30 uM) on PHA blast cells compared to control after 24 hours of treatment; format: functional, Homo sapiens
[1] = Metabolic rate as a measure of compound stability in rat liver microsomes; format: ADME, Microsome
[2] = Oral bioavailability of compound after administration of a solution dose in PEG400; format: ADME, organism-based; details: eutheria, in vivo
[3] = Clearance of compound in mice after intravenous administration; format: ADME, organism-based; details: mouse, in vivo
[4] = Metabolic rate as a measure of compound stability in human liver microsomes; format: ADME, Microsome
[5] = In vitro permeability of compound into Caco-2 cells; format: ADME, cell-based; details: human, read-out: Permeability
[6] = Half-life of compound evaluated in mice after intravenous administration; format: ADME, organism-based; details: mouse, in vivo
MAP kinase p38 = MAP kinase p38 (Homo sapiens, UniProt O15264+Q15759+Q16539+P53778); test: Binding affinity for human p38 MAP kinase expressed in Escherichia coli using [gamma-33P]ATP; n=4
[7] = target: Inhibitor of NF-kappa-B kinase (IKK) (Homo sapiens, UniProt O14920+O15111+Q9Y6K9); test: Inhibitory concentration against IKK; format: protein-complex assay
Sequence of Inhibitor of NF-kappa-B kinase (IKK) (O14920 whole entry): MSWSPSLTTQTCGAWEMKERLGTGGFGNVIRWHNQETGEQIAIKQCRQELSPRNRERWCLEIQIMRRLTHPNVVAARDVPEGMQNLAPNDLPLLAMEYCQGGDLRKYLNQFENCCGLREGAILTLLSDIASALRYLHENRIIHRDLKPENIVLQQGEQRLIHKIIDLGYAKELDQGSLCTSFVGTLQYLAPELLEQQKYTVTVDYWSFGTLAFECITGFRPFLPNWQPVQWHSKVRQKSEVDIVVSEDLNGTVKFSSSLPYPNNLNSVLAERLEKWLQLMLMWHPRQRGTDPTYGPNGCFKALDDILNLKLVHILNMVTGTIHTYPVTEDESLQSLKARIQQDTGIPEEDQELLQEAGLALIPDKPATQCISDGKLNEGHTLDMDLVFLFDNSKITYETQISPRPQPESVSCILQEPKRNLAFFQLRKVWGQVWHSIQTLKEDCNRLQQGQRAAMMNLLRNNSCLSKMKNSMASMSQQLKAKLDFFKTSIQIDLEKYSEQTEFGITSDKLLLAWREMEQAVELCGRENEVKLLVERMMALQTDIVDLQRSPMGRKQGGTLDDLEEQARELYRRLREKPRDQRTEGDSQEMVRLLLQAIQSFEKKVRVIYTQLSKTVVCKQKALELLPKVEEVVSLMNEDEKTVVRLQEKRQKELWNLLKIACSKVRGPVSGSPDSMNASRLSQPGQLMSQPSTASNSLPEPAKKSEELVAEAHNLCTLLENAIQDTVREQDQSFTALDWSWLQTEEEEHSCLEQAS
Sequence of Inhibitor of NF-kappa-B kinase (IKK) (O15111 whole entry): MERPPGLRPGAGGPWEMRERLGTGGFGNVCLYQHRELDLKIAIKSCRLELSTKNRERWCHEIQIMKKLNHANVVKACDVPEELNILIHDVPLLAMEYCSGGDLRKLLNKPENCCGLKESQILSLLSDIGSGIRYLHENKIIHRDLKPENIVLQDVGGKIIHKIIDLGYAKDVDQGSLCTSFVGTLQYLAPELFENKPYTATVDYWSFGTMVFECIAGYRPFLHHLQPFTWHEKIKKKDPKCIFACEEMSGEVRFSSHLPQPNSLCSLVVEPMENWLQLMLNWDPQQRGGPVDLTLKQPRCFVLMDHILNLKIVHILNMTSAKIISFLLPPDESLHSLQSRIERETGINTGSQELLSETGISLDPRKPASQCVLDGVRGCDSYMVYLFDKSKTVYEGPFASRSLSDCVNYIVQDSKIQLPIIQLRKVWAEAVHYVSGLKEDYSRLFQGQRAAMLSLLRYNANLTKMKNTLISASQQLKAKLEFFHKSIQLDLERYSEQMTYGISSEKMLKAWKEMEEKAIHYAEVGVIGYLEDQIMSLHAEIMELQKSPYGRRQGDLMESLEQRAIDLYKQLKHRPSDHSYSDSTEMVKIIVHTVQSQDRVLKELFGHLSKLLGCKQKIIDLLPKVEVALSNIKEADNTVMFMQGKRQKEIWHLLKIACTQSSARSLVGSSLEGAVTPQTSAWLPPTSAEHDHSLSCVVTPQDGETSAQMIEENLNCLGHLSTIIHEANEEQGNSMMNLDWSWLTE
Sequence of Inhibitor of NF-kappa-B kinase (IKK) (Q9Y6K9 whole entry): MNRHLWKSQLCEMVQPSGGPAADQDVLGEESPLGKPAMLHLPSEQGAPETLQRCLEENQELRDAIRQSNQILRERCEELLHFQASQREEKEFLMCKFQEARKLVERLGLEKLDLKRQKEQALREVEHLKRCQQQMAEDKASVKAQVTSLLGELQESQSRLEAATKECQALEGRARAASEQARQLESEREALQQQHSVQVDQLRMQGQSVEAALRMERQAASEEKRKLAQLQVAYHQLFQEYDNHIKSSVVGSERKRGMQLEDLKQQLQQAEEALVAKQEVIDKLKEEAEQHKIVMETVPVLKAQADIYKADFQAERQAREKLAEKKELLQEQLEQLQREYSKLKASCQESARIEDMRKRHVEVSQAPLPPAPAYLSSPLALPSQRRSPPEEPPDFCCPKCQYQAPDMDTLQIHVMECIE

Protein kinase C (PKC) = test: Inhibitory concentration against PKC; format: protein assay
[8] = target: Tyrosine-protein kinase SYK (Homo sapiens, UniProt P43405); test: Inhibitory concentration against Syk
[9] = target: Mitogen-activated protein kinase 11 (Homo sapiens, UniProt Q15759); test: Inhibitory concentration against p38 beta
[10] = target: cAMP-dependent protein kinase (PKA) (Homo sapiens, UniProt P22694+P17612+P22612); test: Inhibitory concentration against PKA; format: protein assay
[11] = target: RAF proto-oncogene serine/threonine-protein kinase (Homo sapiens, UniProt P04049); test: Inhibitory concentration against Raf
[12] = target: Serine/threonine-protein kinase AKT (Homo sapiens, UniProt P31751+Q9Y243+P31749); test: Inhibitory concentration against Akt; format: protein assay
[13] = target: Tyrosine-protein kinase ITK/TSK (Homo sapiens, UniProt Q08881); test: Inhibitory concentration against Itk
[14] = target: Tyrosine-protein kinase JAK3 (Homo sapiens, UniProt P52333); test: Inhibitory concentration against JAK3
[15] = target: Receptor tyrosine-protein kinase erbB-2 (Homo sapiens, UniProt P04626); test: Inhibitory concentration against HER2 (ErbB2)
[16] = target: MAP kinase-activated protein kinase 2 (Homo sapiens, UniProt P49137); test: Inhibitory concentration against MK2
Sequence of MAP kinase-activated protein kinase 2 (P49137 whole entry): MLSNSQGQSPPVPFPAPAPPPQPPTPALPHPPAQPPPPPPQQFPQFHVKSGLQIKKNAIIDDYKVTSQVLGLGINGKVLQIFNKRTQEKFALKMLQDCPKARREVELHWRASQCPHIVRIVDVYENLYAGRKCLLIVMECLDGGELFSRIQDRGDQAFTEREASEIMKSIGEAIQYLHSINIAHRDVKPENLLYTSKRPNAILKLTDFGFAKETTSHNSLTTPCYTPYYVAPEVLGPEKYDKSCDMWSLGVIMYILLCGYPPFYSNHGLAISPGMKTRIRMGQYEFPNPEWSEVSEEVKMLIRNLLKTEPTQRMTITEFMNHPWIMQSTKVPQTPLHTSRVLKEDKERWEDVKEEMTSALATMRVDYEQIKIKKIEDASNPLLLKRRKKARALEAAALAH

[17] = target: Glycogen synthase kinase-3 (Homo sapiens, UniProt P49840+P49841); test: Inhibitory concentration against GSK-3; format: protein assay
[18] = target: Insulin-like growth factor 1 receptor (Homo sapiens, UniProt P08069); test: Inhibitory concentration against IGF-IR
[19] = target: Vascular endothelial growth factor receptor 2 (Homo sapiens, UniProt P35968); test: Inhibitory concentration against KDR
Sequence of Vascular endothelial growth factor receptor 2 (P35968 whole entry): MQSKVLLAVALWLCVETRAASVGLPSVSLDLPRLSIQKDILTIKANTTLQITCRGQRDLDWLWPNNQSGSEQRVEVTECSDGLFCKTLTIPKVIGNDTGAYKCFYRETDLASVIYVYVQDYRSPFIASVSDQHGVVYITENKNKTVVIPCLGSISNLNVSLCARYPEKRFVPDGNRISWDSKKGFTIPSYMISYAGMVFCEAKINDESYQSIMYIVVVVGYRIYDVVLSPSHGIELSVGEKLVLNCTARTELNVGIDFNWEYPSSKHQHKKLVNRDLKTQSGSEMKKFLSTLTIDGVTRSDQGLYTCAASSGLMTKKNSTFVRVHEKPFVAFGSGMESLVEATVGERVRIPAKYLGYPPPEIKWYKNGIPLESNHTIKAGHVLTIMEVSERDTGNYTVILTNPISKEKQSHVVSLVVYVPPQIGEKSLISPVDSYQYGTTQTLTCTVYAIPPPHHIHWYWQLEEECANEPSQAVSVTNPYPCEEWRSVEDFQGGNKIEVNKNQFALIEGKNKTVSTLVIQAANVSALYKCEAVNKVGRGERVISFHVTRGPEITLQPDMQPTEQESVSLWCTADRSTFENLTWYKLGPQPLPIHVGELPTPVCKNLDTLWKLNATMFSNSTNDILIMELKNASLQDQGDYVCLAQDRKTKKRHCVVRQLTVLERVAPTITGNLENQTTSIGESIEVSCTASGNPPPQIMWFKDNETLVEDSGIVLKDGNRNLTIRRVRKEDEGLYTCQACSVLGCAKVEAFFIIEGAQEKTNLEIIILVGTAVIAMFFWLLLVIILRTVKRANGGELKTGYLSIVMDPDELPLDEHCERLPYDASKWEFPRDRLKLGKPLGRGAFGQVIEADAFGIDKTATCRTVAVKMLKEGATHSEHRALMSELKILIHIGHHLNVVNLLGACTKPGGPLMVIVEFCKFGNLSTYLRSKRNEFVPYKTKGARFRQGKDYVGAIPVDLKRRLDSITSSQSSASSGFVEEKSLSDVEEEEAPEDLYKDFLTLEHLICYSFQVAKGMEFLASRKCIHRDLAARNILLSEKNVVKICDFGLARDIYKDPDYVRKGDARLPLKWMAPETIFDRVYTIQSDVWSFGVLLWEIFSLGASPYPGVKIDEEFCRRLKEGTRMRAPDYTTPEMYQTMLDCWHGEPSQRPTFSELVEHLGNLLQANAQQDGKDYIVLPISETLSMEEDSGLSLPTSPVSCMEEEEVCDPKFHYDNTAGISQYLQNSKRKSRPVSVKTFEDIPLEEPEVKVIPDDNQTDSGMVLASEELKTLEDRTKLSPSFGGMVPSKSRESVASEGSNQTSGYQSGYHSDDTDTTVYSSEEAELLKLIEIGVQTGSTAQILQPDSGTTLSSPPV

[20] = target: Mitogen-activated protein kinase 14 (Homo sapiens, UniProt Q16539); test: Inhibitory concentration against p38 alpha
Sequence of Mitogen-activated protein kinase 14 (Q16539 whole entry): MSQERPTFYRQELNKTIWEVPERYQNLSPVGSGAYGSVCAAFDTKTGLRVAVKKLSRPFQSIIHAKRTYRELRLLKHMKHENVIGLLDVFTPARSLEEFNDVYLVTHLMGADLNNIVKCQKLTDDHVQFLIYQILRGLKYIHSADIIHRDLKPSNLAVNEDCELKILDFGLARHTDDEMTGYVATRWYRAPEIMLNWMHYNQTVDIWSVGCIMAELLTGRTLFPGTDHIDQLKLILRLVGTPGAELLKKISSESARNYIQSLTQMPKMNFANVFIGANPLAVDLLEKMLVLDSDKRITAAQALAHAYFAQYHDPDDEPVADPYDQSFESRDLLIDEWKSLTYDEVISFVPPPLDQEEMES

[21] = target: Mitogen-activated protein kinase 12 (Homo sapiens, UniProt P53778); test: Inhibitory concentration against p38 gamma
Sequence of Mitogen-activated protein kinase 12 (P53778 whole entry): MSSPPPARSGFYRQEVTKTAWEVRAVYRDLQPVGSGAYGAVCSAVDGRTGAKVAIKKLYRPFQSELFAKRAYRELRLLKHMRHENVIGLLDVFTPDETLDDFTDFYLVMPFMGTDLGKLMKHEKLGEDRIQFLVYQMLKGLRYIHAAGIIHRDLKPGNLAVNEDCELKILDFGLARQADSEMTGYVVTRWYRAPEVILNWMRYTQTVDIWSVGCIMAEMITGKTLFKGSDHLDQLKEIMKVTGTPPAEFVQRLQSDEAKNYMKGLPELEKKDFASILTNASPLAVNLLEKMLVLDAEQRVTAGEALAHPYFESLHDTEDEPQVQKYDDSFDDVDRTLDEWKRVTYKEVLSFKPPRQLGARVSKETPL

[22] = target: Hepatocyte growth factor receptor (Homo sapiens, UniProt P08581); test: Inhibitory concentration against Met
[23] = target: Fibroblast growth factor receptor (Homo sapiens, UniProt P22607+P11362+P22455+P21802); test: Inhibitory concentration against FGF receptor; format: protein assay
[24] = target: Dual specificity mitogen-activated protein kinase kinase 1 (Homo sapiens, UniProt Q02750); test: Inhibitory concentration against MEK
[25] = target: Mitogen-activated protein kinase 13 (Homo sapiens, UniProt O15264); test: Inhibitory concentration against p38 delta
[26] = target: Cyclin-dependent kinase 2 (Homo sapiens, UniProt P24941); test: Inhibitory concentration against CDK2
[27] = target: Mitogen-activated protein kinase 1 (Homo sapiens, UniProt P28482); test: Inhibitory concentration against ERK
[28] = target: Tyrosine-protein kinase Lck (Homo sapiens, UniProt P06239); test: Inhibitory concentration against Lck
Sequence of Tyrosine-protein kinase Lck (P06239 whole entry): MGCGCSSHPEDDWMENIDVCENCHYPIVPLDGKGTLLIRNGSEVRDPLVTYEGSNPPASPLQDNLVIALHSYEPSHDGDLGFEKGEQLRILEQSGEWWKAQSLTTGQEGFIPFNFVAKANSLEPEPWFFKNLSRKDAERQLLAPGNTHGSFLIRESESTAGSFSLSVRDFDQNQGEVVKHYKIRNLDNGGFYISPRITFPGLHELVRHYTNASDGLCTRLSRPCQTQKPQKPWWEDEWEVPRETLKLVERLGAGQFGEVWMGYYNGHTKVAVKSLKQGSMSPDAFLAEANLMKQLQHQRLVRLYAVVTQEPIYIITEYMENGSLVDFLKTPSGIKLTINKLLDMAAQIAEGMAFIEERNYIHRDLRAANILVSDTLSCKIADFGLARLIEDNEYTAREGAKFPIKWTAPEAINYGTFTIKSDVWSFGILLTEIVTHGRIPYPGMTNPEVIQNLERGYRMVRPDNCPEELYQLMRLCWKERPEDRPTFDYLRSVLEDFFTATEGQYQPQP

CNc1nc(Nc2cc(C(=O)NOC)ccc2C)c(C#N)c(N(C)CC(C)(C)C)n1
IC50 (PBMC): 64 µM

CONC(=O)c1ccc(C)c(Nc2ncnc(N(C)CC(C)(C)C)c2C#N)c1
IC50 (PBMC): 42 µM

CCn1nccc1NC(=O)c1ccc(C)c(Nc2ncnc(NC(C)C)c2C#N)c1
IC50 (PBMC): 130 µM

CONC(=O)c1ccc(C)c(Nc2nc(N3CCCN(C)CC3)nc(N(C)CC(C)(C)C)c2C#N)c1
IC50 (PBMC): 0.33 µM

Cc1ccc(C(=O)Nc2ccon2)cc1Nc1nc(N)nc(NC(C)C)c1C#N
IC50 (PBMC): 18 µM

Cc1ccc(C(=O)Nc2ccon2)cc1Nc1nc(N)nc(NC2CCCC2)c1C#N
IC50 (PBMC): 1.5 µM

CNc1ncnc(Nc2cc(C(=O)NOC)ccc2C)c1C#N
IC50 (PBMC): > 250 µM

CCn1nccc1NC(=O)c1ccc(C)c(Nc2ncnc(NC3CCCC3)c2C#N)c1
IC50 (PBMC): 72 µM

CCn1nccc1NC(=O)c1ccc(C)c(Nc2nc(N)nc(NC3CCCC3)c2C#N)c1
IC50 (PBMC): 21 µM

Cc1ccc(C(=O)Nc2ccon2)cc1Nc1ncnc(NC(C)C)c1C#N
IC50 (PBMC): 8.7 µM | Control (PHA-Ly): 82% | Metabolic rate [1]: 0.22 nmol/min*mg of protein | bioavailability [2]: 100% | clearance [3]: 28.3 mL/min/kg | Metabolic rate [4]: 0.012 nmol/min*mg of protein | Papp [5]: 23.9 ×10⁻⁶ cm/s | half-life [6]: 1.7 h

CONC(=O)c1ccc(C)c(Nc2ncnc(NC3CCCC3)c2C#N)c1
IC50 (PBMC): 4.1 µM | Ki (MAP kinase p38): 0.00042 µM

CONC(=O)c1ccc(C)c(Nc2nc(N)nc(N(C)CC(C)(C)C)c2C#N)c1
IC50 (PBMC): 17 µM

CCn1nccc1NC(=O)c1ccc(C)c(Nc2nc(N)nc(NC(C)C)c2C#N)c1
IC50 (PBMC): 67 µM

CONC(=O)c1ccc(C)c(Nc2ncnc(NC(C)C)c2C#N)c1
IC50 (PBMC): 4.6 µM

CCCNc1ncnc(Nc2cc(C(=O)NOC)ccc2C)c1C#N
IC50 (PBMC): 158 µM

Cc1ccc(C(=O)Nc2ccon2)cc1Nc1ncnc(NC2CCCC2)c1C#N
IC50 [7]: > 10 µM | IC50 (PBMC): 3.5 µM | IC50 (Protein kinase C (PKC)): > 50 µM | IC50 [8]: > 50 µM | IC50 [9]: < 0.1 µM | IC50 [10]: > 50 µM | IC50 [11]: > 30 µM | IC50 [12]: > 50 µM | IC50 [13]: > 50 µM | IC50 [14]: > 50 µM | IC50 [15]: > 50 µM | IC50 [16]: > 50 µM | IC50 [17]: > 50 µM | IC50 [18]: > 50 µM | IC50 [19]: > 30 µM | IC50 [20]: 0.0041 µM | IC50 [21]: > 30 µM | IC50 [22]: > 50 µM | IC50 [23]: > 50 µM | IC50 [24]: > 25 µM | IC50 [25]: > 30 µM | IC50 [26]: > 100 µM | IC50 [27]: > 5 µM | IC50 [28]: > 50 µM
